Assay results taken from patent EP1101492A1, “NOVEL REMEDIES FOR ALLERGIC DISEASES” (FUJI YAKUHIN KOGYO KABUSHIKI KAISHA, priority 1998, dated 2000).
Where “and” joins values, the source holds several entries; their conditions need not be identical. Equal entries are not always repeated.

What was measured:
NC/Jic mice = assay: Spontaneously manifested allergic dermatitis in NC/Jic mice (ointment); format: in vivo
Experimental: Compound No. 130 was well blended with an equivalent mixture of polyethylene glycol 400 and polyethylene glycol 4000 to give an approximately homogeneous product. Thus, an ointment containing the test compound at a rate of 0.1% was prepared. For control groups, an ointment base alone was employed.
Male NC/Jic mice (body weight, 24.1 to 31.9 g; age, 12 to 24 weeks old; supplier, Clea Japan, Inc.) were checked for their health after purchase. Immediately after the health check, the mice were housed under conventional conditions until dermatitis occurred. Mouse heads surrounding auricle portions were observed by eye once daily during the preparatory housing and, after a start in painting with ointments, once daily prior to painting. The severity of spontaneous dermatitis was scored according to a pre-assigned sore table (Table 8) for the observation of dermatitis. Animals seriatim used in the experiment were selected from those showing signs of dermatitis with score 1 or 2 for 3 consecutive days or longer.
The ointment was warmed to about 37°C prior to administration, and open-painted onto diseased sites at 100 mg/dosage/day. Seven weeks were set as a drug application period.

[1] = tested on: mouse experimental atopic dermatitis models; assay: Auricle edema in experimental atopic dermatitis model (anti-DNP IgE sensitization, DNFB elicitation); format: in vivo, Balb/c mice; settings: for % Inhibition vLPR: auricle edema Day 7 post-elicitation
[2] = tested on: allergic inflammation models (air pouch models); assay: Allergic inflammation model (air pouch model): leukocyte infiltration; format: in vivo, rats; settings: 10 mg/kg or 30 mg/kg, into the air pouch at the second challenge or systemically 30 minutes prior; exudate 8 hours after second challenge; dexamethasone 0.1 mg/kg as comparison
Experimental: Compound No. 130 was dissolved in physiological saline to make the final concentration 2.5 mg/mL (equal to 10 mg/kg) or 7.5 mg/mL (equal to 30 mg/kg) and administered into an air pouch of animals or intraperitoneally at a dose of 4 mL/kg. Dexamethasone was also dissolved in physiological saline to make the final concentration 25 µg/mL (equal to 0.1 mg/kg) and administered into an air pouch of animals at a dose of 4 mL/kg. Administration into such an air pouch was conducted simultaneously with the second challenge while the intraperitoneal administration was 30 minutes prior to the second challenge. Acetylated bovine serum albumin diazo-coupled with arsanilic acid (ABA-AcBSA) was prepared according to the Ouchi et al. and Tabachnick et al. methods as disclosed in Ouchi et al., "Seibutsu Yakukagaku Jikken Koza, Ensho To Allergy (Inflammation and Allergy) I-2", pp.194 to 206, Hirokawa Publishing Co., Japan and Tabachnick et al., The Journal of Biological Chemistry, 234: 1726- 1730, 1959, and mixed with a Freund's complete adjuvant (Difco) at an equal ratio. The mixture was treated using a connection-type glass syringe to form an emulsion which was used as a sensitizing solution. […] The retrieved exudates were measured by a dye-exclusion method using a haematocytometer and the number of exudated leukocytes were counted.

For `CNC(=O)[C@H](Cc1ccc(NC(=N)N)cc1)NC(=O)[C@H](CC(C)C)C(CCCc1ccccc1)C(=O)NO` (single isomer, unassigned) [Compound No. 130, N-[4-(N-Hydroxyamino)-2(R)-isobutyl-3(R or S)-(3-phenyltrimethylene)succinyl)-L-4'-guanidophenylalanine-N-methylamide 1 acetate], which “Dermatitis Score (Average ± S. D.*)” value (NC/Jic mice; 0.1 % ointment, 100 mg/dosage/day for seven weeks, score (0-4) on Day 49, 3 animals, ointment base 3.7 ± 0.6) is on record?
The value was 2.3 ± 1.5.

And the “scratching actions (individual animals)” value (NC/Jic mice; 0.1% ointment, counted for 30 minutes before painting, Days 47 to 48, ointment base 126, 138, 206)?
Its value is 19 scratching actions and 81 scratching actions and 177 scratching actions.

And the “scratching actions (average)” value (NC/Jic mice; 0.1% ointment, counted for 30 minutes before painting, Days 47 to 48, ointment base average 157)?
Its value is 92 scratching actions.

And the “inhibitory efficacy on IgE-mediated auricle edema (FIG. 7)” value ([1]; 50 µg/ear/dose in ethanol painted twice a day, 1 hour pre-elicitation, 0.25, 3, 4, 5 and 6 days post-elicitation)?
Its value is “endowed with an inhibitory activity on edemas in any of IPR, LPR, and vLPR”.

What about the “inhibitory efficacy on IgE-mediated auricle edema (FIG. 6)” value ([1]; 60 mg/kg s.c. 24 and 2 hours prior to elicitation only, compared with prednisolone 10 mg/kg i.p., IPR 1 hour, LPR 1 day, vLPR 7 days) of the same compound?
Its value is “edema-inhibitory activity equivalent to that of prednisolone in IPR and slightly and markedly higher than that of prednisolone in LPR and vLPR, respectively”.

And the “% Inhibition IPR” value ([1]; auricle edema 1 hour post-elicitation, test compounds 60 mg/kg s.c., prednisolone 10 mg/kg i.p., once a day, 24 & 2 hours prior to DNFB-elicitation, vs untreated group)?
Its value is 64.4%.

What about the “% Inhibition LPR” value ([1]; auricle edema Day 1 post-elicitation, test compounds 60 mg/kg s.c., prednisolone 10 mg/kg i.p., once a day, 24 & 2 hours prior to DNFB-elicitation, vs untreated group) of the same compound?
The value was 51.3%.

And the “% Inhibition vLPR” value ([1]; test compounds 60 mg/kg s.c., prednisolone 10 mg/kg i.p., daily from 3 to 6 days after DNFB-elicitation)?
Its value is 52.7%.

What about the “% Inhibition vLPR” value ([1]; test compounds 60 mg/kg s.c., prednisolone 10 mg/kg i.p., daily from 1 day prior to through 5 days after DNFB-elicitation) of the same compound?
The value was 79.0%.

What about the “infiltration of leukocytes into an air pouch (FIG. 14)” value [2] of the same compound?
Its value is “significantly inhibited”.
